Key:
SAOS-2 = assay: Suppression of doxorubicin-senescent SAOS-2 tumors in nude mice, Example 19; assay type: in vivo, mouse; settings: after DOX 10 mg/kg ip; 21 days daily; LX-5701 360 mg/kg po, LX-2101 20 mg/kg ip, LX-2102 10 mg/kg ip; DOX repeated as control
Description: Seven-week-old male BALB/c nude mice (KRIBB Laboratory Animal Resource Center) were acclimated to the experimental environment for one week, after which they were randomly assigned to experimental and control groups. Evaluation was performed using the same method as in Example 2-1 of WO2023-085787 A1. Cultured human osteosarcoma cell lines, SAOS-2 (10^6 cells), were mixed in phosphate-buffered saline (PBS) and administered subcutaneously to anesthetized mice using 2% isoflurane (Sigma). When the tumors reached approximately […], doxorubicin (10 mg/kg) was mixed in a 1:1 solution of distilled water and PBS (pH 7.2) and administered intraperitoneally to induce tumor senescence. After 10 days, LX-5701 mixed in PBS at a concentration of 360 mg/kg was administered orally daily for 21 days, or LX-2101 mixed in PBS solution with 5% DMSO at a concentration of 20 mg/kg or LX-2102 mixed in PBS with 5% DMSO at a concentration of 10 mg/kg was administered intraperitoneally daily for 21 days, and then the tumor size was measured. The control group was repeatedly administered a solution mixed with doxorubicin, and then the tumor size was measured.

[1] = tested on: HMGN1 secreted from senescent A549 cells; assay: HMGN1 secretion (ELISA) from senescent A549 cancer cells, Example 12; assay type: cell-based, human; settings: senescent untreated = 100%; 30 μM; 90 μM for LX-305, 905, 1302, 1601, 1603, 2003, 2702, 2901, 3106; 270 μM for LX-1103, 2005, 2007;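 further: A549 cells made senescent by doxorubicin exposure, with DMSO-treated cells serving as the non-senescent control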
Description: (§2) Cells were treated with doxorubicin or control (DMSO) and cultured.

naturally aged mice [2] = assay: p16, MMP3, IL6 mRNA in liver of naturally aged mice (qRT-PCR), Example 15; assay type: in vivo, mouse; settings: untreated aged = 100%, 5 days
Description: (§1) In the same manner as in Example 7-1 of WO2023-085787 A1, naturally aged mice were administered LX-405 (5% DMSO in PBS solution, 10 mg/kg, intraperitoneal administration), LX-801 (PBS, 100 mg/kg, intraperitoneal administration), LX-1102 (0.5% CMC-Na solution, 100 mg/kg, oral administration), LX-1801 (PBS, 50 mg/kg, intraperitoneal administration), LX-2101 (0.5% CMC-Na solution, 10 mg/kg, intraperitoneal administration), and LX-3403 (mouse anti-PD-1 antibody (BioXcell), 100 μg, intraperitoneal administration) for 5 days under the following conditions. The control group was administered only the solution in the same volume. After drug administration was completed, the method described in each Example below was performed. The mouse was sacrificed in the same manner as Example 7-2 and 7-6 of WO2023-085787 A1. Total RNA was extracted from liver tissue, and qRT-PCR was performed and analyzed using synthesized cDNA. […] The mRNA amounts of p16, MMP3, and IL6 after natural aging were induced were calculated as 100% and compared them with the mRNA amounts of p16, MMP3, and IL6 after treatment with the test compound. Furthermore, an open field test was performed to analyze aging-related frailty in mice using the same method as Example 7-7 of WO2023-085787 A1. […] The amount of activity evaluated after inducing aging was calculated as 100% and compared it with the amount of activity evaluated after treatment with the test compound.

senescent foreskin cells = assay: Survival of senescent human cells treated with supernatant (secreted fluid) from death-induced cells, Example 13; assay type: cell-based; settings: Table 8; supernatant from dying senescent cells treated at 30, 90 or 270 μM (as Example 11); senescent treated cells
[3] = tested on: bleomycin-induced pulmonary fibrosis mice; assay: Bleomycin-induced pulmonary fibrosis mice, Example 31, Table 56; assay type: in vivo, mouse; settings: untreated = 100%
Procedure, shortened: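 Mice with bleomycin-induced pulmonary fibrosis, untreated or given test compound, with vehicle-only controls. Lung tissue collected for RNA extraction and qRT-PCR analysis.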

naturally aged mice [4] = assay: Anti-aging evaluation in naturally aged mice, Example 31, Table 55; assay type: in vivo, mouse; settings: for Femur Ctsk mRNA / Kidney Agtr1a mRNA / Liver IL6 mRNA / Liver MMP3 mRNA / Liver p16 mRNA / Open Field Test Time in Center: untreated = 100%; for Heart Sur2a mRNA / Joint Col2a1 mRNA / Skin Col1a1 mRNA / Skin SDF1 mRNA: untreated = 1.0; for Muscle Mass: untreated 0.64 g; for Fat Mass: untreated 0.82 g; for Cataract incidence: untreated 83%;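 on all read-outs here: Vehicle-dosed control mice received solution alone at matching volume, values compare test-compound-treated aged mice against that control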
naturally aged mice [5] = assay: Open field test in naturally aged mice, Example 15; assay type: in vivo, mouse; settings: untreated aged = 100%; 5 days; doses as p16 mRNA
Description: as §1

[6] = tested on: carbon tetrachloride-induced liver fibrosis mice; assay: Carbon tetrachloride-induced liver fibrosis mice, Example 31, Table 57; assay type: in vivo, mouse; settings: CCl4-induced liver fibrosis mice, untreated = 100%
Procedure, shortened: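 Mice with induced hepatic fibrosis received either the test compound or, as controls, an equal volume of vehicle solution alone. Once dosing ended, liver tissue was harvested and total RNA was isolated. cDNA was synthesized from this RNA, and quantitative RT-PCR was run on it to measure hepatic mRNA levels of the fibrosis- and senescence-related genes.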

[7] = tested on: HMGN1 secreted from senescent human cells; assay: HMGN1 secretion (ELISA) from doxorubicin-induced senescent human cells, Example 11; assay type: cell-based; settings: senescent untreated = 100%; 30 μM; 90 μM for LX-305, 1302, 1603, 2005, 2702, 2901, 3106; 270 μM for LX-1103, 2007
senescent A549 cells = assay: Viability of senescent A549 cancer cells (CellTiter-Glo), Example 12; assay type: cell-based, human; settings: 0 μM = 100
Description: as §2
Cancer cells in which aging was induced by treatment with doxorubicin were treated with the test compound at designated concentrations and measured using the CellTiter-Glo Luminescent Cell Viability Assay (Promega).

senescent human cells = assay: Viability of doxorubicin-induced senescent human cells (CellTiter-Glo), Example 11; assay type: cell-based; settings: 0 μM = 100
Description: Cells in which senescence was induced by treatment with doxorubicin were treated with the test compound at designated concentrations and measured using the CellTiter-Glo Luminescent Cell Viability Assay (Promega).
After 3 days, cell viability was measured using CellTiter-Glo Luminescent Cell Viability Assay (Promega) or light microscopy.

Compound	HMGN1 [1] [%]	Survival (senescent foreskin cells)	Lung p16 mRNA [3]	Col1a1 mRNA [3]	Femur Ctsk mRNA (naturally aged mice [4]) [%]	Heart Sur2a mRNA (naturally aged mice [4]) [fold]	Joint Col2a1 mRNA (naturally aged mice [4]) [fold]	Kidney Agtr1a mRNA (naturally aged mice [4]) [%]	Liver IL6 mRNA (naturally aged mice [4]) [%]	Liver MMP3 mRNA (naturally aged mice [4]) [%]	Liver p16 mRNA (naturally aged mice [4]) [%]	Open Field Test Time in Center (naturally aged mice [4]) [%]	Skin Col1a1 mRNA (naturally aged mice [4]) [Fold]	Skin SDF1 mRNA (naturally aged mice [4]) [fold]	Muscle Mass (naturally aged mice [4]) [g]	Fat Mass (naturally aged mice [4]) [g]	Cataract incidence (naturally aged mice [4]) [%]	Liver p16 mRNA [6]	Col1a1 mRNA [6]	HMGN1 [7] [%]	other results
COc1cccc2c1C(=O)c1c(O)c3c(c(O)c1C2=O)C[C@@](O)(C(=O)CO)C[C@@H]3O[C@H]1C[C@H](N)[C@H](O)[C@H](C)O1 [DOX, doxorubicin]																					Tumor Diameter (SAOS-2): 16.1 (±0.9) mm
Fc1ccc(-n2cc(CCCCN3CCC4(CC3)OCc3ccccc34)c3ccccc32)cc1 [LX-1102, Siramesine]	324	52.9	59 (±3.9) %	68 (±4.1) %	62	1.8	1.7	80	74	71	58	148	2.5	2.3	0.65	0.95	77	76 (±2.8) %	64 (±4.7) %		p16 mRNA (naturally aged mice [2]; LX-405 10 mg/kg ip, LX-801 100 mg/kg ip, LX-1102 100 mg/kg po, LX-1801 50 mg/kg ip, LX-2101 10 mg/kg ip, LX-3403 100 μg ip): 75.2 (±5.5) %; IL6 mRNA (naturally aged mice [2]; doses as p16 mRNA): 84.5 (±8.9) %; MMP3 mRNA (naturally aged mice [2]; doses as p16 mRNA): 89.7 (±12.5) %; Open Field Test Time in Center (naturally aged mice [5]): 163 (±7.9) %
CN(Cc1cnc2nc(N)nc(N)c2n1)c1ccc(C(=O)N[C@@H](CCC(=O)O)C(=O)O)cc1 [LX-2901, Methotrexate]	189	97.5	72 (±5.7) %	61 (±4.3) %	51	1.7	4.0	67	55	72	64	167	1.7	1.8	0.69	0.90	59	59 (±1.3) %	73 (±3.6) %	167	Survival (senescent A549 cells; 1.1 μM): 89%; Survival (senescent A549 cells; 10 μM): 90.4%; Survival (senescent A549 cells; 30 μM): 92.3%; Survival (senescent A549 cells; 90 μM): 37.2%; Survival (senescent A549 cells; […]): 87.8%; Survival (senescent human cells; 1.1 μM): 103.3%; Survival (senescent human cells; 10 μM): 104.8%; Survival (senescent human cells; 30 μM): 93.6%; Survival (senescent human cells; 90 μM): 49.9%; Survival (senescent human cells; […]): 97.8%
Cc1nc(-c2nc(-c3ccc(OC(F)(F)F)cc3)no2)nn1Cc1cccc(N2CCC(S(C)(=O)=O)CC2)c1 [LX-3200]	305	54.9	76 (±5.7) %	63 (±6.9) %	68	1.4	1.3	62	67	71	77	188	1.4	1.6	0.69	1.03	72	75 (±9.8) %	80 (±9.6) %	234	Survival (senescent A549 cells; 1.1 μM): 94.9%; Survival (senescent A549 cells; 10 μM): 61.6%; Survival (senescent A549 cells; 30 μM): 1.6%; Survival (senescent A549 cells; […]): 91.7%; Survival (senescent human cells; 1.1 μM): 92.2%; Survival (senescent human cells; 10 μM): 14.3%; Survival (senescent human cells; […]): 78.6%

Source: US20260306460A1, “COMPOSITION FOR REMOVING AND INHIBITING SENESCENT CELLS, AND USES THEREOF” (LIFECEUTIX CO., LTD., priority 2023, published 2026)
